Patent publication US10544143B2, “4-azaindole compounds” (BRISTOL-MYERS SQUIBB COMPANY, priority 2017, dated 2020)

How the values were obtained:
[1] = biological target: human TLR8 (Homo sapiens (Human), UniProt Q9NR97); experiment: TLR8 inhibition reporter assay (HEK-Blue SEAP); settings: read-out: TLR8 IC50; HEK-Blue cells overexpressing human TLR8, R848 15.9 μM stimulation, SEAP reporter;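 note: SEAP driven by IFN-β minimal promoter carrying NF-κB and AP-1 sites, compounds dosed 0.05 nM to 50 µM for 22 h, inhibition scaled between agonist-plus-DMSO and reference-inhibitor wells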
Chain of human TLR8 (Q9NR97 27-1041): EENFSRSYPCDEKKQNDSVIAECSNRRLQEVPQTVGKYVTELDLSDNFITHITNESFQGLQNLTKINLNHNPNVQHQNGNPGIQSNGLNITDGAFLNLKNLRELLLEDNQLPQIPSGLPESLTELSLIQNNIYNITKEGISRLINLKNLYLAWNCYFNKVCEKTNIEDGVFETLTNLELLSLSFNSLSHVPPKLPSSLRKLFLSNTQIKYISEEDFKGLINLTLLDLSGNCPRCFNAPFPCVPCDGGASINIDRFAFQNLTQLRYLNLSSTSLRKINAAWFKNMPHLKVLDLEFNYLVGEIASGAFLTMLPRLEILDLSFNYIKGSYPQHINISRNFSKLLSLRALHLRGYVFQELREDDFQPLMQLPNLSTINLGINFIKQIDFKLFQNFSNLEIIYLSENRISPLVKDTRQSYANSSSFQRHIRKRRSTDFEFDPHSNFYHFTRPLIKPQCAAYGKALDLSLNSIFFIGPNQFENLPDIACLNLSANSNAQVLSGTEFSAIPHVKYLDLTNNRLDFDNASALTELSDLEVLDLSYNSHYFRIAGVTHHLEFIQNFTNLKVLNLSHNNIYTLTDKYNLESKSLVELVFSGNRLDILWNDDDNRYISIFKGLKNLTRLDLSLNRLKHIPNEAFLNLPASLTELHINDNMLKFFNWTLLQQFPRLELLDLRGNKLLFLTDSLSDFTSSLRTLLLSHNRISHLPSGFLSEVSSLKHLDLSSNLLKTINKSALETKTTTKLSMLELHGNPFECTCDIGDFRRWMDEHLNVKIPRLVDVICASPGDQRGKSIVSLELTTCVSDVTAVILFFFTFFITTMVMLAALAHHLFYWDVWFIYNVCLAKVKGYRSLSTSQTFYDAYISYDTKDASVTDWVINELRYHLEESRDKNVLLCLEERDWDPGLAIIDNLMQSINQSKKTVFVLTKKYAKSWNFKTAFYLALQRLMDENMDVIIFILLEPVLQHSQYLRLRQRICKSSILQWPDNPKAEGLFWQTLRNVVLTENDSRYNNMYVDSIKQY

[2] = biological target: human TLR7 (Homo sapiens (Human), UniProt Q9NYK1); experiment: TLR7 inhibition reporter assay (HEK-Blue SEAP); assay type: cell-based; settings: HEK-Blue cells overexpressing human TLR7, gardiquimod 7.5 μM stimulation, SEAP reporter
Chain of human TLR7 (Q9NYK1 27-1049): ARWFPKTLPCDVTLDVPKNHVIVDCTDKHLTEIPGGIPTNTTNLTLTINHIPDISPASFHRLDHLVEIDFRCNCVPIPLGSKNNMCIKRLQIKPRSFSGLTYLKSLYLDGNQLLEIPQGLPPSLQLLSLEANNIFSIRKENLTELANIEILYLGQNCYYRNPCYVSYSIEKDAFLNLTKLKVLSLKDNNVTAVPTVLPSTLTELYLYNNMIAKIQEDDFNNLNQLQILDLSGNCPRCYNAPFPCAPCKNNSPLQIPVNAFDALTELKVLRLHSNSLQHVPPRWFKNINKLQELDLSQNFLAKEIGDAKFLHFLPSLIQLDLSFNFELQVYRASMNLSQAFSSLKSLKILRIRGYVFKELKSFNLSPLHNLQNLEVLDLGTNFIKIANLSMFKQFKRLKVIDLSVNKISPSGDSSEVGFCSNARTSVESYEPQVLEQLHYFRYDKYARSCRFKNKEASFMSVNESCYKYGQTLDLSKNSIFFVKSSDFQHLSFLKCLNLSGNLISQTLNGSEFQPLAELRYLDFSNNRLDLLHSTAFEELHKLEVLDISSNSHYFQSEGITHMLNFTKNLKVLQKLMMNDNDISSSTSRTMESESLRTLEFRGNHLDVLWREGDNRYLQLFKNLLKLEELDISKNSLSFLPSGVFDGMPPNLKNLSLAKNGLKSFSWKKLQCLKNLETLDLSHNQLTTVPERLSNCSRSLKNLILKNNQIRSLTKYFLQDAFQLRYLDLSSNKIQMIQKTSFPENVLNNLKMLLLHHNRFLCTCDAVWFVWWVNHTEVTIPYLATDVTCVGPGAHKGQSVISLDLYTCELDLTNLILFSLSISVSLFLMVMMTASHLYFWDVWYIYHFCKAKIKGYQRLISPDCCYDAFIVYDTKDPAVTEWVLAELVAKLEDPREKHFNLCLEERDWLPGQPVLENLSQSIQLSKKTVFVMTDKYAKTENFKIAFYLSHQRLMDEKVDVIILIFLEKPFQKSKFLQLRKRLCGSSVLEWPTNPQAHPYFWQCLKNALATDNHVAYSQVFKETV

[3] = biological target: human TLR9 (Homo sapiens (Human), UniProt Q9NR96); experiment: TLR9 inhibition reporter assay (HEK-Blue SEAP); settings: read-out: TLR9 IC50; HEK-Blue cells overexpressing human TLR9, ODN2006 5 nM stimulation, SEAP reporter;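 note: SEAP driven by an IFN-β minimal promoter with NF-κB and AP-1 sites, read after 22 h, compounds dosed 0.05 nM–50 µM, inhibition scaled between agonist plus DMSO and reference-inhibitor wells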
Chain of human TLR9 (Q9NR96 26-1032): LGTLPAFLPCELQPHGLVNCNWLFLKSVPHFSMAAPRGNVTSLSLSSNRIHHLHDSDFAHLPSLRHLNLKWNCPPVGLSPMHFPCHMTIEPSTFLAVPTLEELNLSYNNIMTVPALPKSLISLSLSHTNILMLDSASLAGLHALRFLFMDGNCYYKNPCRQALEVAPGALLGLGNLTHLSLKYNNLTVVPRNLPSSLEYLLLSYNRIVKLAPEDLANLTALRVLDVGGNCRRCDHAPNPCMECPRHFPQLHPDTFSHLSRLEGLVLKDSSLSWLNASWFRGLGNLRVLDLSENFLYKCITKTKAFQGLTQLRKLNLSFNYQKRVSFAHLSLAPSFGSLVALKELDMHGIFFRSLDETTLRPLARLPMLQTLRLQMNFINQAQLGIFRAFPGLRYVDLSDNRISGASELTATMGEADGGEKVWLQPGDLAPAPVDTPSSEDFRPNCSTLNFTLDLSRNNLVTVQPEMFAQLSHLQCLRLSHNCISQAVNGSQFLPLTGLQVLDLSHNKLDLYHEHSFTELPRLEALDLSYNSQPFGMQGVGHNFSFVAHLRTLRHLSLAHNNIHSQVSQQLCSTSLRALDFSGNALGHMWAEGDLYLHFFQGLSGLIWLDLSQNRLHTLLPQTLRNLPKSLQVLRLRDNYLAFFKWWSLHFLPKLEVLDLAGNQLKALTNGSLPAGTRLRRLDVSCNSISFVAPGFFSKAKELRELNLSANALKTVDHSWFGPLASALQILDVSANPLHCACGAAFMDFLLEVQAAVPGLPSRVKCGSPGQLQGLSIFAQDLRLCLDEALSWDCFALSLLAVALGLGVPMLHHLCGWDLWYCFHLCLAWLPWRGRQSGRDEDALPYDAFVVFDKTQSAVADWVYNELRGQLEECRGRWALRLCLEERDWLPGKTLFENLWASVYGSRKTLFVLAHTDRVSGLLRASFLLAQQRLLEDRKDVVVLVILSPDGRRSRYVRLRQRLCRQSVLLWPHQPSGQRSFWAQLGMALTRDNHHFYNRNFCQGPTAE
Procedure: HEK-Blue™-cells (Invivogen) overexpressing human TLR7, TLR8 or TLR9 receptors were used for screening inhibitors of these receptors using an inducible SEAP (secreted embryonic alkaline phosphatase) reporter gene under the control of the IFN-β minimal promoter fused to five NF-κB and AP-1-binding sites. Briefly, cells are seeded into Greiner 384 well plates (15000 cells per well for TLR7, 20,000 for TLR8 and 25,000 for TLR9) and then treated with test compounds in DMSO to yield a final dose response concentration range of 0.05 nM-50 μM. After a 30 minute compound pre-treatment at room temperature, the cells are then stimulated with a TLR7 ligand (gardiquimod at a final concentration of 7.5 μM), TLR8 ligand (R848 at a final concentration of 15.9 μM) or TLR9 ligand (ODN2006 at a final concentration of 5 nM) to activate NF-κB and AP-1 which induce the production of SEAP. After a 22 hour incubation at 37° C., 5% CO2, SEAP levels are determined with the addition of HEK-Blue™ Detection reagent (Invivogen), a cell culture medium that allows for detection of SEAP, according to manufacturer's specifications.

IC50 [1]	IC50 [2]	IC50 [3]	SMILES
22 nM	9.5 nM	2390 nM	COc1cc(-c2[nH]c3ccc(C4CCC(NCc5cnco5)CC4)nc3c2C(C)C)cn2ncnc12 (stereo not drawn) [Example 206]
4.4 nM	1.9 nM	253 nM	Cc1cnc(CNC2CCC(c3ccc4[nH]c(-c5cn(C)c6ncccc56)c(C(C)C)c4n3)CC2)cn1 (stereo not drawn) [Example 207]
16 nM	2.2 nM	1350 nM	COc1cc(-c2[nH]c3ccc(C4CCC(N(C)Cc5ncccn5)CC4)nc3c2C(C)C)cn2ncnc12 (stereo not drawn) [Example 208]
4 nM	0.71 nM	641 nM	COc1cc(-c2[nH]c3ccc(C4CCC(N(C)Cc5ncccn5)CC4)nc3c2C(C)C)cn2ncnc12 (stereo not drawn) [Example 209]
> 3120 nM	> 3120 nM	> 50000 nM	CNC(=O)CN(C)C1CCC(c2ccc3[nH]c(-c4cc(OC)c5ncnn5c4)c(C(C)C)c3n2)CC1 (stereo not drawn) [Example 210]
6.8 nM	1.1 nM	585 nM	COc1cc(-c2[nH]c3ccc(C4CCC(N(C)CC(=O)N(C)C)CC4)nc3c2C(C)C)cn2ncnc12 (stereo not drawn) [Example 211]
6.8 nM	3.4 nM	1190 nM	COc1cc(-c2[nH]c3ccc(C4CCC(N(C)CC(N)=O)CC4)nc3c2C(C)C)cn2ncnc12 (stereo not drawn) [Example 212]
17 nM	9.5 nM	706 nM	COCc1cc(-c2[nH]c3ccc(C4CCC(NCC(=O)N(C)C)CC4)nc3c2C(C)C)cn2ncnc12 (stereo not drawn) [Example 213]
6.3 nM	3.9 nM	833 nM	COCc1cc(-c2[nH]c3ccc(C4CCC(NC5COC5)CC4)nc3c2C(C)C)cn2ncnc12 (stereo not drawn) [Example 214]
7.6 nM	[…]	2250 nM	CC(C)c1c(-c2cc(CO)c3ncnn3c2)[nH]c2ccc(C3CCC(NC4COC4)CC3)nc12 (stereo not drawn) [Example 215]
20 nM	8.5 nM	389 nM	CC(C)c1c(-c2cc(CO)c3ncnn3c2)[nH]c2ccc(C3CCC(NCc4c[nH]nn4)CC3)nc12 (stereo not drawn) [Example 218]
8 nM	3.9 nM	2480 nM	COc1cc(-c2[nH]c3ccc(C4CCC(NCC5(S(C)(=O)=O)CC5)CC4)nc3c2C(C)C)cn2ncnc12 (stereo not drawn) [Example 219]
6.1 nM	[…]	1020 nM	CC(C)c1c(-c2cc(CO)c3ncnn3c2)[nH]c2ccc(C3CCC(NC4COC4)CC3)nc12 (stereo not drawn) [Example 220]
13 nM	3.7 nM	435 nM	CC(C)c1c(-c2cc(CO)c3ncnn3c2)[nH]c2ccc(C3CCC(NCc4c[nH]nn4)CC3)nc12 (stereo not drawn) [Example 221]
4.2 nM	1.5 nM	718 nM	Cc1cnc(CNC2CCC(c3ccc4[nH]c(-c5cc(CO)c6ncnn6c5)c(C(C)C)c4n3)CC2)cn1 (stereo not drawn) [Example 224]
35 nM	4 nM	3360 nM	COc1cc(-c2[nH]c3ccc(C4CCC(N(C)CC(N)=O)CC4)nc3c2C(C)C)cn2ncnc12 (stereo not drawn) [Example 225]
14 nM	2.7 nM	1790 nM	COc1cc(-c2[nH]c3ccc(C4CCC(N(C)CC(=O)N(C)C)CC4)nc3c2C(C)C)cn2ncnc12 (stereo not drawn) [Example 226]
7.7 nM	2 nM	926 nM	CNC(=O)CN(C)C1CCC(c2ccc3[nH]c(-c4cc(OC)c5ncnn5c4)c(C(C)C)c3n2)CC1 (stereo not drawn) [Example 227]
23 nM	3.3 nM	2390 nM	CNC(=O)CN(C)C1CCC(c2ccc3[nH]c(-c4cc(OC)c5ncnn5c4)c(C(C)C)c3n2)CC1 (stereo not drawn) [Example 228]
18 nM	19 nM	1710 nM	COCc1cc(-c2[nH]c3ccc(C4CCC(NC5COC5)CC4)nc3c2C(C)C)cn2ncnc12 (stereo not drawn) [Example 229]
33 nM	38 nM	2460 nM	COCc1cc(-c2[nH]c3ccc(C4CCC(NCC(=O)N(C)C)CC4)nc3c2C(C)C)cn2ncnc12 (stereo not drawn) [Example 230]
3 nM	0.61 nM	365 nM	COc1cc(-c2[nH]c3ccc(C4CCC(NCC(=O)N(C)C)CC4)nc3c2C(C)C)cn2ncnc12 (stereo not drawn) [Example 231]
9.8 nM	3 nM	484 nM	COc1cc(-c2[nH]c3ccc(C4CCC(NCC(=O)N(C)C)CC4)nc3c2C(C)C)cn2ncnc12 (stereo not drawn) [Example 232]
24 nM	11 nM	2660 nM	Cc1c(-c2[nH]c3ccc(C4CCC(NC5COC5)CC4)nc3c2C(C)C)cn2cnnc2c1C (stereo not drawn) [Example 233]
5 nM	1.6 nM	435 nM	Cc1c(-c2[nH]c3ccc(C4CCC(NC5COC5)CC4)nc3c2C(C)C)cn2cnnc2c1C (stereo not drawn) [Example 234]

IC50 [1]	IC50 [2]	IC50 [3]	SMILES
2 nM	[…]	929 nM	CC(C)c1c(-c2cc(CO)c3ncnn3c2)[nH]c2ccc(C3CCC(NC4COC4)CC3)nc12 (stereo not drawn) [Example 235]
2.8 nM	3.9 nM	376 nM	CC(C)c1c(-c2cn(C)c3ncccc23)[nH]c2ccc(C3CCC(NCC4(S(C)(=O)=O)CC4)CC3)nc12 (stereo not drawn) [Example 236]
19 nM	20 nM	18200 nM	Cc1c(-c2[nH]c3ccc(C4CCC(N(C5CC5)C5COC5)CC4)nc3c2C(C)C)cn2cnnc2c1C (stereo not drawn) [Example 237]
0.97 nM	0.71 nM	297 nM	CC(C)c1c(-c2cn(C)c3ncccc23)[nH]c2ccc(C3CCC(NCC4(S(C)(=O)=O)CC4)CC3)nc12 (stereo not drawn) [Example 238]
181 nM	106 nM	> 50000 nM	Cc1c(-c2[nH]c3ccc(C4CCC(N(C5CC5)C5COC5)CC4)nc3c2C(C)C)cn2cnnc2c1C (stereo not drawn) [Example 239]
16 nM	5.4 nM	5080 nM	COc1cc(-c2[nH]c3ccc(C4CCC(N(C)C5COC5)CC4)nc3c2C(C)C)cn2ncnc12 (stereo not drawn) [Example 240]
2.9 nM	2 nM	1750 nM	COc1cc(-c2[nH]c3ccc(C4CCC(N(C)CCS(C)(=O)=O)CC4)nc3c2C(C)C)cn2ncnc12 (stereo not drawn) [Example 241]
15 nM	1.5 nM	2410 nM	COc1cc(-c2[nH]c3ccc(C4CCC(N(C)CCS(C)(=O)=O)CC4)nc3c2C(C)C)cn2ncnc12 (stereo not drawn) [Example 242]
9.5 nM	7.6 nM	999 nM	CC(C)c1c(-c2cn(C)c3ncccc23)[nH]c2ccc(C3CCC(NC4CC4)CC3)nc12 (stereo not drawn) [Example 243]
8.2 nM	1.6 nM	2350 nM	COc1cc(-c2[nH]c3ccc(C4CCC(N5CC6(COC6)C5)CC4)nc3c2C(C)C)cn2ncnc12 (stereo not drawn) [Example 244]
4.7 nM	2.7 nM	343 nM	CC(C)c1c(-c2cn(C)c3ncccc23)[nH]c2ccc(C3CCC(N4CC5(COC5)C4)CC3)nc12 (stereo not drawn) [Example 245]
2.6 nM	1.9 nM	4280 nM	CC(C)c1c(-c2cc(CO)c3ncnn3c2)[nH]c2ccc(C3CCC(N(C)C4COC4)CC3)nc12 (stereo not drawn) [Example 246]
1.2 nM	1.2 nM	825 nM	CC(C)c1c(-c2cn(C)c3ncccc23)[nH]c2ccc(C3CCC(NCCS(C)(=O)=O)CC3)nc12 (stereo not drawn) [Example 247]
13 nM	1.5 nM	1780 nM	COc1cc(-c2[nH]c3ccc(C4CCC(N5CC6(C5)CS(=O)(=O)C6)CC4)nc3c2C(C)C)cn2ncnc12 (stereo not drawn) [Example 248]
7.3 nM	25 nM	5980 nM	Cc1c(-c2[nH]c3ccc(C4CCC(N(C)C5COC5)CC4)nc3c2C(C)C)cn(C)c(=O)c1C (stereo not drawn) [Example 249]
57 nM	26 nM	13700 nM	Cc1cc(-c2[nH]c3ccc(C4CCC(N(C)C5COC5)CC4)nc3c2C(C)C)cn(C)c1=O (stereo not drawn) [Example 250]
13 nM	8.6 nM	1750 nM	CC(C)c1c(-c2cn(C)c3ncccc23)[nH]c2ccc(C3CCC(NCCS(C)(=O)=O)CC3)nc12 (stereo not drawn) [Example 251]
10 nM	8 nM	7260 nM	CC(C)c1c(-c2cc(CO)c3ncnn3c2)[nH]c2ccc(C3CCC(N(C)C4COC4)CC3)nc12 (stereo not drawn) [Example 252]
0.72 nM	0.65 nM	1150 nM	COc1cc(-c2[nH]c3ccc(C4CCC(N5CC6(C5)CS(=O)(=O)C6)CC4)nc3c2C(C)C)cn2ncnc12 (stereo not drawn) [Example 253]
27 nM	72 nM	8730 nM	Cc1c(-c2[nH]c3ccc(C4CCC(N(C)C5COC5)CC4)nc3c2C(C)C)cn(C)c(=O)c1C (stereo not drawn) [Example 254]
0.25 nM	0.6 nM	218 nM	CC(C)c1c(-c2cn(C)c3ncccc23)[nH]c2ccc(C3CCC(N4CC5(C4)CS(=O)(=O)C5)CC3)nc12 (stereo not drawn) [Example 255]
3.7 nM	1.2 nM	335 nM	CC(C)c1c(-c2cn(C)c3ncccc23)[nH]c2ccc(C3CCC(N4CC5(C4)CS(=O)(=O)C5)CC3)nc12 (stereo not drawn) [Example 256]
25 nM	35 nM	175 nM	CC(C)c1c(-c2cn(CCS(C)(=O)=O)c3ncccc23)[nH]c2ccc(C3CCC(NCC(=O)N(C)C)CC3)nc12 (stereo not drawn) [Example 257]
3.5 nM	13 nM	100 nM	CC(C)c1c(-c2cn(CCS(C)(=O)=O)c3ncccc23)[nH]c2ccc(C3CCC(N4CC5(COC5)C4)CC3)nc12 (stereo not drawn) [Example 258]
7.1 nM	19 nM	321 nM	CC(C)c1c(-c2cn(CCS(C)(=O)=O)c3ncccc23)[nH]c2ccc(C3CCC(NCC4(S(C)(=O)=O)CC4)CC3)nc12 (stereo not drawn) [Example 259]
